{"source": "patent US20220389373A1", "about": "“METHODS AND SYSTEMS FOR GENERATING THREE-DIMENSIONAL BIOLOGICAL STRUCTURES” (Fluicell AB, priority 2019, published 2022)", "test_system": "HaCaT cells", "assay": "Retinoic acid treatment of bioprinted psoriasis-like skin model, CK10 immunofluorescence", "type": "cell-based, human", "conditions": "printed stripes of differentiated (cytokine-treated) and non-differentiated HaCaT cells; RA 1 μM in growth media for 20 hrs; versus solvent control", "data": [{"smiles": "CC1=C(/C=C/C(C)=C/C=C/C(C)=C/C(=O)O)C(C)(C)CCC1", "note": "[retinoic acid, all-trans retinoic acid]", "values": [{"measurement": "decrease in CK10 expression for the treated samples", "result": "approximately 20%"}]}]}
